Columns and labels:
Experiment in all cases: relative viability (nuclei count vs DMSO), 5 days (fraction); higher = more cells survive
AZD8055 = compound: COc1ccc(-c2ccc3c(N4CCOC[C@@H]4C)nc(N4CCOC[C@@H]4C)nc3n2)cc1CO [AZD8055]
Outline: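 Lung cancer cell lines received five library-drug doses (not always all listed) spaced by √10, pinned on vehicle-anchored 1536-well plates after an overnight stay at 37 °C. Five days later, with no medium change, nuclei were Hoechst-stained, imaged at 4× and counted with MetaXpress. Viability is treated-well nuclei relative to vehicle-well nuclei, as a median across plates. Passing plates had control CV below 25% and at least one doubling.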

AZD8055 + Foretinib = compound: COc1ccc(-c2ccc3c(N4CCOC[C@@H]4C)nc(N4CCOC[C@@H]4C)nc3n2)cc1CO [AZD8055] + COc1cc2c(Oc3ccc(NC(=O)C4(C(=O)Nc5ccc(F)cc5)CC4)cc3F)ccnc2cc1OCCCN1CCOCC1 [Foretinib] (partner 0.25 µM)
Outline: (§1)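 Lung cancer cell lines in 1536-well plates got either a single drug or a fixed anchor-drug dose together with five library-drug doses (not always all listed) in √10 steps, by pin tool, on the day after seeding. Nuclei were counted after 5 days, and relative viability is the treated-to-vehicle ratio of nuclei counts. Values are medians of duplicate plates.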

AZD8055 + Palbociclib = compound: COc1ccc(-c2ccc3c(N4CCOC[C@@H]4C)nc(N4CCOC[C@@H]4C)nc3n2)cc1CO [AZD8055] + CC(=O)c1c(C)c2cnc(Nc3ccc(N4CCNCC4)cn3)nc2n(C2CCCC2)c1=O [Palbociclib] (partner 0.5 µM)
Outline: as §1

AZD8055 + OSI-027 = compound: COc1ccc(-c2ccc3c(N4CCOC[C@@H]4C)nc(N4CCOC[C@@H]4C)nc3n2)cc1CO [AZD8055] + COc1cccc2cc(-c3nc([C@H]4CC[C@H](C(=O)O)CC4)n4ncnc(N)c34)[nH]c12 [OSI-027] (partner 0.5 µM)
Outline: as §1

Cell Line: NCI-H2342
- relative viability (AZD8055; 0.01 µM): 1.19
- relative viability (AZD8055; 0.03162 µM): 0.881
- relative viability (AZD8055; 0.1 µM): 0.735
- relative viability (AZD8055; 0.3162 µM): 0.476
- relative viability (AZD8055; 1 µM): 0.572
- relative viability (AZD8055 + Foretinib; first compound 0.01 µM): 0.999
- relative viability (AZD8055 + Foretinib; first compound 0.03162 µM): 1.05
- relative viability (AZD8055 + Foretinib; first compound 0.1 µM): 0.801
- relative viability (AZD8055 + Foretinib; first compound 0.3162 µM): 0.538
- relative viability (AZD8055 + Foretinib; first compound 1 µM): 0.578
- relative viability (AZD8055 + Palbociclib; first compound 0.01 µM): 0.489
- relative viability (AZD8055 + Palbociclib; first compound 0.03162 µM): 0.537
- relative viability (AZD8055 + Palbociclib; first compound 0.1 µM): 0.458
- relative viability (AZD8055 + Palbociclib; first compound 0.3162 µM): 0.473
- relative viability (AZD8055 + Palbociclib; first compound 1 µM): 0.426
- relative viability (AZD8055 + OSI-027; first compound 0.01 µM): 0.598
- relative viability (AZD8055 + OSI-027; first compound 0.03162 µM): 0.621
- relative viability (AZD8055 + OSI-027; first compound 0.1 µM): 0.571
- relative viability (AZD8055 + OSI-027; first compound 0.3162 µM): 0.529
- relative viability (AZD8055 + OSI-027; first compound 1 µM): 0.594

Cell Line: NCI-H2347
- relative viability (AZD8055; 0.01 µM): 1.14
- relative viability (AZD8055; 0.03162 µM): 0.942
- relative viability (AZD8055; 0.1 µM): 0.911
- relative viability (AZD8055; 0.3162 µM): 0.5
- relative viability (AZD8055; 1 µM): 0.48
- relative viability (AZD8055 + Foretinib; first compound 0.01 µM): 0.804
- relative viability (AZD8055 + Foretinib; first compound 0.03162 µM): 0.949
- relative viability (AZD8055 + Foretinib; first compound 0.1 µM): 0.454
- relative viability (AZD8055 + Foretinib; first compound 0.3162 µM): 0.403
- relative viability (AZD8055 + Foretinib; first compound 1 µM): 0.386
- relative viability (AZD8055 + Palbociclib; first compound 0.01 µM): 0.428
- relative viability (AZD8055 + Palbociclib; first compound 0.03162 µM): 0.44
- relative viability (AZD8055 + Palbociclib; first compound 0.1 µM): 0.384
- relative viability (AZD8055 + Palbociclib; first compound 0.3162 µM): 0.346
- relative viability (AZD8055 + Palbociclib; first compound 1 µM): 0.352
- relative viability (AZD8055 + OSI-027; first compound 0.01 µM): 0.408
- relative viability (AZD8055 + OSI-027; first compound 0.03162 µM): 0.387
- relative viability (AZD8055 + OSI-027; first compound 0.1 µM): 0.356
- relative viability (AZD8055 + OSI-027; first compound 0.3162 µM): 0.346
- relative viability (AZD8055 + OSI-027; first compound 1 µM): 0.248

Cell Line: NCI-H2405
- relative viability (AZD8055; 0.01 µM): 0.999
- relative viability (AZD8055; 0.03162 µM): 1
- relative viability (AZD8055; 0.1 µM): 0.797
- relative viability (AZD8055; 0.3162 µM): 0.406
- relative viability (AZD8055; 1 µM): 0.407
- relative viability (AZD8055 + Foretinib; first compound 0.01 µM): 1.03
- relative viability (AZD8055 + Foretinib; first compound 0.03162 µM): 0.977
- relative viability (AZD8055 + Foretinib; first compound 0.1 µM): 0.816
- relative viability (AZD8055 + Foretinib; first compound 0.3162 µM): 0.432
- relative viability (AZD8055 + Foretinib; first compound 1 µM): 0.381
- relative viability (AZD8055 + Palbociclib; first compound 0.01 µM): 0.51
- relative viability (AZD8055 + Palbociclib; first compound 0.03162 µM): 0.47
- relative viability (AZD8055 + Palbociclib; first compound 0.1 µM): 0.384
- relative viability (AZD8055 + Palbociclib; first compound 0.3162 µM): 0.336
- relative viability (AZD8055 + Palbociclib; first compound 1 µM): 0.295
- relative viability (AZD8055 + OSI-027; first compound 0.01 µM): 0.664
- relative viability (AZD8055 + OSI-027; first compound 0.03162 µM): 0.697
- relative viability (AZD8055 + OSI-027; first compound 0.1 µM): 0.56
- relative viability (AZD8055 + OSI-027; first compound 0.3162 µM): 0.43
- relative viability (AZD8055 + OSI-027; first compound 1 µM): 0.385

Cell Line: NCI-H3122
- relative viability (AZD8055; 0.01 µM): 1.06
- relative viability (AZD8055; 0.03162 µM): 1.11
- relative viability (AZD8055; 0.1 µM): 0.846
- relative viability (AZD8055; 0.3162 µM): 0.457
- relative viability (AZD8055; 1 µM): 0.311
- relative viability (AZD8055 + Foretinib; first compound 0.01 µM): 0.97
- relative viability (AZD8055 + Foretinib; first compound 0.03162 µM): 1.02
- relative viability (AZD8055 + Foretinib; first compound 0.1 µM): 1.05
- relative viability (AZD8055 + Foretinib; first compound 0.3162 µM): 0.396
- relative viability (AZD8055 + Foretinib; first compound 1 µM): 0.401
- relative viability (AZD8055 + Palbociclib; first compound 0.01 µM): 0.194
- relative viability (AZD8055 + Palbociclib; first compound 0.03162 µM): 0.197
- relative viability (AZD8055 + Palbociclib; first compound 0.1 µM): 0.155
- relative viability (AZD8055 + Palbociclib; first compound 0.3162 µM): 0.147
- relative viability (AZD8055 + Palbociclib; first compound 1 µM): 0.117
- relative viability (AZD8055 + OSI-027; first compound 0.01 µM): 1.09
- relative viability (AZD8055 + OSI-027; first compound 0.03162 µM): 0.846
- relative viability (AZD8055 + OSI-027; first compound 0.1 µM): 0.854
- relative viability (AZD8055 + OSI-027; first compound 0.3162 µM): 0.323
- relative viability (AZD8055 + OSI-027; first compound 1 µM): 0.236

Cell Line: PC-3 [JPC-3]
- relative viability (AZD8055; 0.01 µM): 1.08
- relative viability (AZD8055; 0.03162 µM): 1.11
- relative viability (AZD8055; 0.1 µM): 0.931
- relative viability (AZD8055; 0.3162 µM): 0.957
- relative viability (AZD8055; 1 µM): 0.609
- relative viability (AZD8055 + Foretinib; first compound 0.01 µM): 1.12
- relative viability (AZD8055 + Foretinib; first compound 0.03162 µM): 1.12
- relative viability (AZD8055 + Foretinib; first compound 0.1 µM): 1.1
- relative viability (AZD8055 + Foretinib; first compound 0.3162 µM): 0.774
- relative viability (AZD8055 + Foretinib; first compound 1 µM): 0.492
- relative viability (AZD8055 + Palbociclib; first compound 0.01 µM): 0.515
- relative viability (AZD8055 + Palbociclib; first compound 0.03162 µM): 0.557
- relative viability (AZD8055 + Palbociclib; first compound 0.1 µM): 0.516
- relative viability (AZD8055 + Palbociclib; first compound 0.3162 µM): 0.435
- relative viability (AZD8055 + Palbociclib; first compound 1 µM): 0.458
- relative viability (AZD8055 + OSI-027; first compound 0.01 µM): 0.84
- relative viability (AZD8055 + OSI-027; first compound 0.03162 µM): 0.742
- relative viability (AZD8055 + OSI-027; first compound 0.1 µM): 0.756
- relative viability (AZD8055 + OSI-027; first compound 0.3162 µM): 0.768
- relative viability (AZD8055 + OSI-027; first compound 1 µM): 0.566
